In ChEMBL document CHEMBL3639081, “Azabicyclo compound and salt thereof” (2014):

Molecular target: Heat shock protein HSP 90-alpha (Homo sapiens, UniProt P07900)
Experiment: AlphaScreen Competitive Assay: The HSP90-binding activity was measured by an AlphaScreen competitive assay system. The purified HSP90 solution was diluted with a binding buffer (50 mM Tris-HCl (pH 7.5), 150 mM NaCl, 0.1% Triton-X100, 1 mM DTT, 0.1% BSA) and added to a 384-well plate (No. 3673, Corning Incorporated) containing test substances. After reaction at room temperature for 2 hr, biotin-labeled geldanamycin was added to each reaction solution in an amount of 40 nM, followed by reaction for further 1 hr. Detection mix (20 mM HEPES-KOH (pH 7.5), 0.5% BSA, 0.04 mg/mL Nickel Chelate Acceptor beads, 0.04 mg/mL Streptavidin-coated Donor beads) (No. 6760619C, Perkin Elmer, Inc.) was added to each well in the same amount as that of the reaction solution. After reaction in a dark place at room temperature for 1 hr, the fluorescence intensity in each well was measured with a multilabel plate reader, EnVision (Perkin Elmer, Inc.).

`COc1cc(C(N)=O)ccc1-n1nc(C(C)C)c2c(-n3cnc(-c4cnn(C)c4)c3)ccnc21` was tested. Which IC50 did it give?
The IC50 was 90 nM.
